The numbers were not newly measured in US8252791B2, “Purine compounds as cannabinoid receptor blockers” (Jenrin Discovery, Inc., priority 2008, dated 2012), which cites them from elsewhere.

The conditions of the series: patients with type 2 diabetes not treated with other anti-diabetic medications; after six months of treatment; baseline value 7.9; placebo group 0.3%.

For the molecule `Cc1c(C(=O)NN2CCCCC2)nn(-c2ccc(Cl)cc2Cl)c1-c1ccc(Cl)cc1` [rimonabant], the HbA1c levels lowered is on record as 0.8%.
